Values quoted from earlier work in PMC3420346 (Bioorganic & medicinal chemistry, 2012).

What was measured:
[1] = compared with related 9-riboside derivatives

Question: Which Resistance to degradation [1] does the source give for `CNc1nc(I)nc2c1ncn2[C@H]1C[C@H](OP(=O)(O)O)[C@]2(COP(=O)(O)O)C[C@H]12` [Compound 1, (1′R,2′S,4′S,5′S)-4-(2-iodo-6-methylamino-purin-9-yl)-1-[(phosphato)-methyl]-2-(phosphato)-bicyclo[3.1.0]hexane] here?
Answer: Its Resistance to degradation is “more resistant to degradation than related 9-riboside derivatives”.

Question: And the “Reduction of thrombus formation in vivo” value (thrombus formation)?
Answer: Its value is “effective in reducing thrombus formation in vivo”.
